Three molecules from US20250032630A1, “B7H4 ANTIBODY-DRUG CONJUGATE AND USE THEREOF” (Duality Biologics (Suzhou) Co., Ltd., priority 2022, published 2025) can be followed below.

Broadly, the IC50 is the concentration that gives 50% inhibition.

Assay [1] deals with human breast cancer cells MX-1 with high expression of B7H4. Nature of the assay: In vitro proliferation inhibition (3D cell culture, CTG). The assay is classed as cell-based. The note with it: 144 h, MX-1, 3D culture, 6 days. How it is done: (§1) The cells in the logarithmic growth phase were collected and a cell culture medium was added to resuspend the cells to prepare a single cell suspension. The single cell suspension was adjusted to a live cell density of […], and 3.5 mL of the cell suspension was mixed uniformly with 6.5 mL of 1% methylcellulose, avoiding bubbles as much as possible. 90 μL of the cell suspension was added to each well of 96-well plates, and the plates were cultured overnight in an incubator with 5% CO2 at 37° C. On the second day of the experiment, the test article was diluted with a complete medium to obtain a 10× solution, 10 μL of the test article solution (the highest final concentration of 100 nM, 9 concentrations, 3-fold dilution) was added to each well, the complete medium was used as a blank control, and 3 replicate wells were set up; and the plates were incubated in the incubator at 37° C. for another 6 days. After the incubation was completed, the cell culture plates were taken out and equilibrated to room temperature, and 100 μL of CTG detection reagent (Promega, Cat #: G7573) was added to each well. The plates were shaken and mixed uniformly, then left to stand in the dark for 10 minutes, and then placed at room temperature for 30 minutes to stabilize the luminescence signal. Luminescence was read using EnVision. Using GraphPad Prism software, a sigmoidal dose-response curve was plotted by using a non-linear regression model, and the IC50 value was calculated. Cell viability calculation

In assay [2] the test system is endometrial carcinoma cells RL95-2 with low expression of B7H4. Described as above. The class given is cell-based. Particulars: Homo sapiens, 144 h, RL95-2, 3D culture, 6 days. How it is done:
as §1

Assay [3] relates to breast cancer cells JIMT-1 negative for B7H4 expression. The assay is described as above. The assay is classed as cell-based. Particulars: Homo sapiens, 144 h, JIMT-1, 3D culture, 6 days. How it is done: as §1
Another assay has as its system Colo205 cells. Nature of the assay: In vitro proliferation inhibition test of small molecule compound (CTG, 6 days), Example 3.2. The class given is cell-based. The note with it: Homo sapiens, COLO 205, 144 h, read-out: Abs-IC50. How it is done: (§2) To detect the inhibitory activity of the drug compound against the proliferation of NCI-N87 and Colo205 tumor cells in vitro. Cells were treated with different concentrations of the compound in vitro, after 6 days of culture, the proliferation of the cells was detected using CTG (CellTiter-Glo® Luminescent Cell Viability Assay, Promega, Cat. No.: G7558) reagent, and the in vitro activity of the compound was evaluated according to the IC50 values. • 1. Cell culture: NCI-N87/Colo205 cells were cultured with 10% FBS RPMI-1640 medium. • 2. Preparation of cells: the NCI-N87/Colo205 cells in the logarithmic growth phase were taken and washed once with PBS, and 2-3 ml of trypsin was then added for digestion for 2-3 min. After the cells were completely digested, 10-15 ml of cell culture medium was added to elute the digested cells, the cells were centrifuged at 1000 rpm for 5 min, the supernatant was discarded, and then 10-20 ml of cell culture medium was added to resuspend the cells to prepare a single cell suspension. • 3. Cell plating: the NCI-N87/Colo205 single cell suspensions were mixed uniformly, and respectively adjusted to a live cell density of 6×10^4 cells/ml with a cell culture medium, and the density-adjusted cell suspensions were mixed uniformly, and added to 96-well cell culture plates at 50 ul/well. The culture plates were cultured in an incubator for 18 hours (37° C., 5% CO2). • 4. Preparation of compound: the compound was dissolved in DMSO to formulate a stock solution with an initial concentration of 10 mM.
(§3) A total of 8 concentrations of the small molecule compound were involved: 300, 100, 30, 10, 3, 1, 0.3, and 0.1 nM, respectively. • 5. Sample loading operation: different concentrations of the formulated samples to be tested were added to culture plates, with two replicate wells for each sample. The culture plates were incubated in an incubator for 6 days (37° C., 5% CO2). • 6. Color development operation: the 96-well cell culture plates were taken out, 50 ul of CTG reagent was added to each well, and the plates were incubated for 10 minutes at room temperature. • 7. Plate reading operation: the 96-well cell culture plates were taken out, and placed in a microplate reader, and the chemiluminescence was determined using the microplate reader.
(§4) Data analysis: the data was processed and analyzed using Microsoft Excel and Graphpad Prism 5.

A further assay concerns NCI-N87 cells. The description is as above. The assay is classed as cell-based. The note with it: Homo sapiens, read-out: Abs-IC50. How it is done:
as §2, §3, §4

Another assay concerns the target T1, human B7H4 (human, UniProt Q7Z7D3 25-282).
T1 sequence (looked up): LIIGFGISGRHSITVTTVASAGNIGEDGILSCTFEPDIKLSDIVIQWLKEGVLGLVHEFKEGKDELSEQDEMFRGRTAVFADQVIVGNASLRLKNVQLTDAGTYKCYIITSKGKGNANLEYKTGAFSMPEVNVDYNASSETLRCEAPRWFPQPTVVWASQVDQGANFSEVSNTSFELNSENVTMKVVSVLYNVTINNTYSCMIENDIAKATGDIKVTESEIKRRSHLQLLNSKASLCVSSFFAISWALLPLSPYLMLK
Nature of the assay: cell-based or functional assay.

Setting [4] is: highest concentration 100 nM, read-out: Max inh.

Like-named read-outs stand apart in the source and are kept apart here.

As for `CC[C@@]1(O)C(=O)OCc2c1cc1n(c2=O)Cc2c-1nc1cc(F)c(C)c3c1c2[C@@H](NC(=O)C[C@H](C)O)CC3` [P-III-30], the 50% inhibitory concentration (IC50) came out at 1.77 nM in assay [1]; 0.843 nM in assay [2]; 24.3 nM in assay [3]; 103 nM in the assay on Colo205 cells (Colo205, 6 days, CTG); 6.5 nM in the assay on NCI-N87 cells (144 h, NCI-N87, 6 days, CTG). The inhibition at up to 0.1 µM in assay [1] (setting [4]) stood at 84.5%; in assay [2] (setting [4]), 95.1%; in assay [3] (setting [4]) it was 71%.
With `CC[C@@]1(O)C(=O)OCc2c1cc1n(c2=O)Cc2c-1nc1cc(F)c(C)c3c1c2[C@@H](NC(=O)CCN)CC3` [Reference example 1, reference compound], the IC50 with Colo205 cells was greater than 1000 nM; in the assay on NCI-N87 cells (NCI-N87, 144 h), greater than 300 nM.

B1: antibody-drug conjugate DB1001-X1 (antibody, DAR 3.89, V domains shown)
VH: QVQLVESGGGVVQPGRSLRLSCAASGFTFRSFGMHWVRQAPGKGLEWVAVISYDASNEYYADSVKGRFIISRDNSKDTLYLQMNSLRAGDTAVYYCAKGGALRWYFAYWGQGTLVTVSS
VL: EIVMTQSPATLSVSPGERATLSCRASQSISSNLGWYQQKPGQAPRLLIYGASTRATGIPARFSGSGSGTEFTLTISSLQSEDFAVYYCQQYRSWPPLTFGGGTKVEIKR
modifications: linker-cytotoxin X1 (payload P-II-3) coupled after TCEP reduction of the antibody; drug-to-antibody ratio (DAR) of 3.89; conjugation residues not stated
Regarding B1, in the assay with human B7H4, the “IC50 (nM), in vitro proliferation inhibition of MDA-MB-468 cells (CTG, 7 days)” value is 30.3 nM.
